Where “and” joins values, the source holds several entries; their conditions need not be identical. Equal entries are not always repeated.
Experiments:
[1] = target: T1, TAS2R10 (Homo sapiens, UniProt Q9NYW0); experiment: Calcium mobilization assay, HEK293T-Gα16gust44 cells expressing TAS2R10; conditions: for Response of TAS2R10: maximal concentration tested: sucralose 100 mM, neotame 30 µM, Ace-K 300 mM, RebA 4 mM, RebM 4 mM, mogroside V 5 mM, erythritol 200 mM, D-allulose 500 mM, thaumatin 100 mM
T1 sequence (Q9NYW0 1-307): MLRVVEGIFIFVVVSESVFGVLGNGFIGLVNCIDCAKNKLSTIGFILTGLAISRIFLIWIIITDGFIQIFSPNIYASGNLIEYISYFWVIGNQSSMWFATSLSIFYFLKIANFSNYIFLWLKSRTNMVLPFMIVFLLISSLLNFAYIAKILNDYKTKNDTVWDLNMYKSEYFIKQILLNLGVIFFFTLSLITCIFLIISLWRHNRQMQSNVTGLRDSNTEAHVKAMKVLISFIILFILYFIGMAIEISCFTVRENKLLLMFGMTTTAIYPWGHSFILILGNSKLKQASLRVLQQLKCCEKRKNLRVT
Description: (§1) Different concentration ranges were tested depending on the injected sweet compound. […] All of the concentration-receptor combinations were measured in triplicate, and each experiment was repeated at least 3 times. The Ca^2+ change was expressed as a fractional change in fluorescent light intensity: ΔF/F = (F − F0)/F0, where F was the fluorescent light intensity at each point, and F0 was the value of fluorescent light emitted prior to stimulus application. To calculate dose–response relationships, the changes in fluorescence upon stimulus application were averaged, mock-subtracted and baseline-corrected. The resulting obtained dose–response data were adjusted by using a 4-parameter logistic equation.

[2] = target: T2, TAS2R30 (Homo sapiens, UniProt P59541); experiment: Calcium mobilization assay, HEK293T-Gα16gust44 cells expressing TAS2R30; conditions: for Response of TAS2R30: maximal concentration tested: sucralose 100 mM, neotame 30 µM, Ace-K 300 mM, RebA 4 mM, RebM 4 mM, mogroside V 5 mM, erythritol 200 mM, D-allulose 500 mM, thaumatin 100 mM
T2 sequence (P59541 1-319): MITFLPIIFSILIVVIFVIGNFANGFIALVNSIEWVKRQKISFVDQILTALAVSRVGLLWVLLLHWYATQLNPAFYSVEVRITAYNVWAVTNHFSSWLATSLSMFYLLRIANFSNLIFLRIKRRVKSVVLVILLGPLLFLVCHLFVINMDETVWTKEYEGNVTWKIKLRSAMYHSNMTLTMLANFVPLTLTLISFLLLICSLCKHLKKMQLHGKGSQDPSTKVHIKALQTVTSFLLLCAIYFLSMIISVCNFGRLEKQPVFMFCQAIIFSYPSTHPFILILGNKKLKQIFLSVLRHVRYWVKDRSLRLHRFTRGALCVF
Description: as §1

[3] = target: T3, TAS2R19 (Homo sapiens, UniProt P59542); experiment: Calcium mobilization assay, HEK293T-Gα16gust44 cells expressing TAS2R19; conditions: maximal concentration tested: sucralose 100 mM, neotame 30 µM, Ace-K 300 mM, RebA 4 mM, RebM 4 mM, mogroside V 5 mM, erythritol 200 mM, D-allulose 500 mM, thaumatin 100 mM
T3 sequence (P59542 1-299): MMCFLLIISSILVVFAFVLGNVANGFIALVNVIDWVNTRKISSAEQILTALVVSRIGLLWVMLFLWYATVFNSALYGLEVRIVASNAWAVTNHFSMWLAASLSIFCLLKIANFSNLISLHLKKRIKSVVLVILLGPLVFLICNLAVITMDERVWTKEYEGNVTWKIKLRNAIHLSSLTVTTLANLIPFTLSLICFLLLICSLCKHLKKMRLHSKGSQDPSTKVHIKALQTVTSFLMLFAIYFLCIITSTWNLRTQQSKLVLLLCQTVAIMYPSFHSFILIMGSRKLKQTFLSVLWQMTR
Description: as §1

[4] = target: T4, TAS2R39 (Homo sapiens, UniProt P59534); experiment: Calcium mobilization assay, HEK293T-Gα16gust44 cells expressing TAS2R39; conditions: maximal concentration tested: sucralose 100 mM, neotame 30 µM, Ace-K 300 mM, RebA 4 mM, RebM 4 mM, mogroside V 5 mM, erythritol 200 mM, D-allulose 500 mM, thaumatin 100 mM
T4 sequence (P59534 1-338): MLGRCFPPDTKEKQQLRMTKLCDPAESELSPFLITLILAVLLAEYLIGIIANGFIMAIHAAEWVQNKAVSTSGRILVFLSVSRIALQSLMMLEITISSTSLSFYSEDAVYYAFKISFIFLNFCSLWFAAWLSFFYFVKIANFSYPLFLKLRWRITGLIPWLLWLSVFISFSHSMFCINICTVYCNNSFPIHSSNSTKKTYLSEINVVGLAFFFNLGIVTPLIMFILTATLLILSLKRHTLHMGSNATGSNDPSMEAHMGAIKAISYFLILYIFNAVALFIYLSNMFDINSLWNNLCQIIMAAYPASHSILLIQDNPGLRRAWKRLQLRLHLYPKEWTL
Description: as §1

[5] = target: T5, TAS2R46 (Homo sapiens, UniProt P59540); experiment: Calcium mobilization assay, HEK293T-Gα16gust44 cells expressing TAS2R46; conditions: for Response of TAS2R46: maximal concentration tested: sucralose 100 mM, neotame 30 µM, Ace-K 300 mM, RebA 4 mM, RebM 4 mM, mogroside V 5 mM, erythritol 200 mM, D-allulose 500 mM, thaumatin 100 mM
T5 sequence (P59540 1-309): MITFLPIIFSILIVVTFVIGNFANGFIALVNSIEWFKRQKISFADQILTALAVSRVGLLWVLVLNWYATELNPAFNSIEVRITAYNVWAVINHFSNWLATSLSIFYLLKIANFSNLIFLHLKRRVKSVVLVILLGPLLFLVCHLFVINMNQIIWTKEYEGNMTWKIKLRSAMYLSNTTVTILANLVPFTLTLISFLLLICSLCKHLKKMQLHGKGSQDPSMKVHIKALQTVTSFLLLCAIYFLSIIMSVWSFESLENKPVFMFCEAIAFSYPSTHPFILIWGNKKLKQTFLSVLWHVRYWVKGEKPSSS
Description: as §1

[6] = target: T6, TAS2R16 (Homo sapiens, UniProt Q9NYV7); experiment: Calcium mobilization assay, HEK293T-Gα16gust44 cells expressing TAS2R16; conditions: for Response of TAS2R16: maximal concentration tested: sucralose 100 mM, neotame 30 µM, Ace-K 300 mM, RebA 4 mM, RebM 4 mM, mogroside V 5 mM, erythritol 200 mM, D-allulose 500 mM, thaumatin 100 mM
T6 sequence (Q9NYV7 1-291): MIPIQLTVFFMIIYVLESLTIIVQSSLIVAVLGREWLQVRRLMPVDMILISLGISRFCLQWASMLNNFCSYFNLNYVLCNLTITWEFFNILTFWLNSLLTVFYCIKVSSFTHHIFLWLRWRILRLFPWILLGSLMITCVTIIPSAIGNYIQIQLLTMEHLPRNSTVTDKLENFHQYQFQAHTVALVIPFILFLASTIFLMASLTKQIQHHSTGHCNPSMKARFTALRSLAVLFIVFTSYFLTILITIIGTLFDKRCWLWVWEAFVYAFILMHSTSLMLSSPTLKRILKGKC
Description: as §1

[7] = target: T7, TAS2R38 (Homo sapiens, UniProt P59533); experiment: Calcium mobilization assay, HEK293T-Gα16gust44 cells expressing TAS2R38; conditions: maximal concentration tested: sucralose 100 mM, neotame 30 µM, Ace-K 300 mM, RebA 4 mM, RebM 4 mM, mogroside V 5 mM, erythritol 200 mM, D-allulose 500 mM, thaumatin 100 mM
T7 sequence (P59533 1-333): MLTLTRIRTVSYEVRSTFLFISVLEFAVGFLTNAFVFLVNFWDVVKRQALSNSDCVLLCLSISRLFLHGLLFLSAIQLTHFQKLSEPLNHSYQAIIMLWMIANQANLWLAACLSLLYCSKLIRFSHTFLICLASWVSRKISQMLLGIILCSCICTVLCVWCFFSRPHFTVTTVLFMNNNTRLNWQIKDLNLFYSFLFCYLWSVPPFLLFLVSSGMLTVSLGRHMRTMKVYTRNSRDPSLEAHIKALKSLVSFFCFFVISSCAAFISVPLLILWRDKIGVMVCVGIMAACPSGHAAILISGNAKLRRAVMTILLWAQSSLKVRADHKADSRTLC
Description: as §1

Compound	Response of TAS2R10 [1]	Response of TAS2R30 [2]	Response of TAS2R19 [3]	Response of TAS2R39 [4]	Response of TAS2R46 [5]	Response of TAS2R16 [6]	EC50 ([6]; read-out: TAS2R16 EC50)	Response of TAS2R38 [7]	concentrations at which TAS2R30 was activated [2]	concentrations at which TAS2R16 was activated [6]	EC50 ([1]; TAS2R10 EC50)	EC50 ([5]; TAS2R46 EC50)
C[C@H](CC[C@@H](O[C@@H]1O[C@H](CO[C@@H]2O[C@H](CO)[C@@H](O)[C@H](O)[C@H]2O)[C@@H](O)[C@H](O)[C@H]1O[C@@H]1O[C@H](CO)[C@@H](O)[C@H](O)[C@H]1O)C(C)(C)O)[C@H]1CC[C@@]2(C)[C@@H]3CC=C4[C@@H](CC[C@H](O[C@@H]5O[C@H](CO[C@@H]6O[C@H](CO)[C@@H](O)[C@H](O)[C@H]6O)[C@@H](O)[C@H](O)[C@H]5O)C4(C)C)[C@]3(C)[C@H](O)C[C@]12C [Mogroside V, mogroside V]	−	−	−	−	−	+	1.18 ± 0.44 mM	+				
thaumatin	−	−	−	−	−	−		−				
O=C(CO)[C@H](O)[C@H](O)[C@H](O)CO [D-allulose]	−	+	+	−	−	+		+	> 300 mM	> 300 mM		
CC1=CC(=O)NS(=O)(=O)O1 [Ace-K, acesulfame-K]	−	−	−	−	−	−		−				
OC[C@@H](O)[C@@H](O)CO [Erythritol, erythritol]	−	−	−	−	−	−		−				
OC[C@H]1O[C@H](O[C@]2(CCl)O[C@H](CCl)[C@@H](O)[C@@H]2O)[C@H](O)[C@@H](O)[C@H]1Cl [Sucralose, sucralose]	#^a	−	−	−	#^a	−		−			17 mM and ≥ 3 mM	3 mM and ≥ 3 mM
COC(=O)[C@H](Cc1ccccc1)NC(=O)[C@H](CC(=O)O)NCCC(C)(C)C [Neotame]	−	−	−	−	−	−		−				
C=C1C[C@@]23CC[C@H]4[C@@](C)(CCC[C@@]4(C)C(=O)O[C@@H]4O[C@H](CO)[C@@H](O)[C@H](O[C@@H]5O[C@H](CO)[C@@H](O)[C@H](O)[C@H]5O)[C@H]4O[C@@H]4O[C@H](CO)[C@@H](O)[C@H](O)[C@H]4O)[C@@H]2CC[C@]1(O[C@@H]1O[C@H](CO)[C@@H](O)[C@H](O[C@@H]2O[C@H](CO)[C@@H](O)[C@H](O)[C@H]2O)[C@H]1O[C@@H]1O[C@H](CO)[C@@H](O)[C@H](O)[C@H]1O)C3 [RebM, Rebaudioside M]	−	−	−	−	−	−		−				
